# According to PubChem BioAssay AID463224 (The Scripps Research Institute Molecular Screening Center, 2010):
# Target: Serine/threonine-protein phosphatase 5 (Homo sapiens) (UniProt P53041)
# Test: PP5 phosphohistone dephosphorylation inhibition IC50 – biochemical, radiolabel, powder samples, orthogonal assay for PP5 inhibitor project, dose response (AID 463224)
# Settings: purified PP5c, 33P-phosphohistone dephosphorylation, scintillation
# Chain of Serine/threonine-protein phosphatase 5 (Homo sapiens) (P53041 whole entry, looked up): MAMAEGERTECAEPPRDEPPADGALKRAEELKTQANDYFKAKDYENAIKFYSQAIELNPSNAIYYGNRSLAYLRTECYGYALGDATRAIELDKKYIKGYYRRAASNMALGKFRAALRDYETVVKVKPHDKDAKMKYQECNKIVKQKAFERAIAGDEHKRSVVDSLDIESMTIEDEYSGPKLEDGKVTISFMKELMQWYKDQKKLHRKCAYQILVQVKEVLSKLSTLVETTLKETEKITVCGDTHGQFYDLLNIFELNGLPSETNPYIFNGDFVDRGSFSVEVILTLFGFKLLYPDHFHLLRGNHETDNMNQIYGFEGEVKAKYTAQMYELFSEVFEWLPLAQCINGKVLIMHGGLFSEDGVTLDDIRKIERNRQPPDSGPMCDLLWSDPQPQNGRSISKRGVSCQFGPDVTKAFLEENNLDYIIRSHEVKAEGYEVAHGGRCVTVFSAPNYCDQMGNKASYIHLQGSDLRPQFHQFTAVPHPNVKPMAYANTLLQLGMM
row,Structure (SMILES),IC50 [µM]
1,O=C(O)c1n[nH]nc1-c1ccccc1,40.6
2,O=C(O)C1C2CCC(O2)C1C(=O)NC1CCCCC1 (configuration not stated),13.5
